# Experimental data taken from patent US20230130403A1, “METHODS OF TREATMENT WITH S1P RECEPTOR MODULATORS” (PRIOTHERA SAS, priority 2021, published 2023).
# Key:
# [1] = target: hERG channels (Homo sapiens, UniProt Q12809); assay: hERG channel inhibition in vitro; type: biochemical; conditions: between 0.5 and 10 μM
# Excerpt: Based on the available in vitro and in vivo data, except for the potential to cause a negative chronotropic effect and some mild increase in blood pressure, there is no indication that KRP203 would cause arrhythmia or QT prolongation in man.
# [2] = tested on: patients undergoing allogeneic HSCT for hematological malignancies; assay: Study CKRP203A2105, phase Ib in patients undergoing allogeneic HSCT;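 note: counts of subjects, HLA-matched donor stem cells, transplant on Day 11 following myeloablative chemotherapy conditioning from Day 2 to Day 10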
# Excerpt: The study population comprised of male or female subjects who were diagnosed with a hematological malignancy and qualified for a standard allogeneic HSCT where HLA matched stem cell source was available. Such malignancies included but were not limited to acute myeloid leukemia (AML), acute lymphoid leukemia (ALL), myelodysplastic syndrome (MDS, chronic lymphoid leukemia (CLL), marginal zone and follicular lymphomas, large-cell lymphoma, lymphoblastic, Burkitt's and other high grade lymphomas; mantle-cell lymphoma, lymphoplasmacytic lymphoma; prolymphocytic leukemia or multiple myeloma.
# HSCT was performed on Day 11. In addition to the investigational treatment with KRP203, the activities included conditioning, standard GvHD prophylaxis, infusion of the stem cells, pre and post-transplant supportive care and follow-up assessments according to the institutional practices. Subjects remained hospitalized for two to five days after bone marrow engraftment occurred. The subsequent study visits were ambulatory or in-house, if needed depending on the health status of the subject.
# Myeloablative conditioning was performed between Day 2 and Day 10 as per SOC using chemotherapy.
# As in Part 1, HSCT was performed on Day 11, all other procedures/visits were same as in Part 1.
# [3] = tested on: human cytochrome P450 isoenzymes; assay: Inhibition of cytochrome P450 isoenzymes in vitro; type: in vitro ADME
# Method: The in vivo ratio of phosphorylated KRP203 to KRP203 in plasma was up to 45 in rat. As the metabolic activities on KRP203 in human blood and hepatocytes were lower than those of other species, the metabolic clearance of KRP203 in man is expected be lower than that in rat and dog. […] KRP230 formed low amounts of covalent drug-protein adducts in human hepatocytes in vitro. Due to the low levels detected ([…] at 3 hours) in-vitro adduct formation is unlikely to be associated with clinical relevant findings at low dose levels (e.g. below 10 mg).
# The weak inhibitory effect of ciclosporin on hepatic CYP3A4 is unlikely to relevantly impact the PK of KRP203.
# [4] = tested on: peripheral lymphocyte counts; assay: Recovery of absolute lymphocyte counts after S1P modulator dosing in healthy volunteers; type: in vivo, human; conditions: single 1 mg FTY720, BAF312 multiple doses for 28 days, single 3 mg KRP203
# Method: Mocravimod is particularly preferred. […] A measurable parameter that determines maintenance of the mode of action, i.e., sequestering of lymphocytes in secondary lymphoid organs and bone marrow, is reduction of peripheral lymphocyte counts. Recovery of absolute lymphocyte counts to 80% of normal counts after a single 1 mg dose of FTY720, multiple dose applications of BAF312 for 28 days, or a single 3 mg dose of KRP203 was reached after 8, 7 and more than 10 days, respectively.
# [5] = tested on: dogs; assay: Acute toxicity in dogs; type: in vivo, dog
# Method: No mortality was seen following single oral dosing in dogs up to 2000 mg/kg.
# [6] = tested on: neuropharmacological effects; assay: Safety pharmacology: neuropharmacological effects in rats; type: in vivo, rat; conditions: doses up to 2000 mg/kg, except some piloerection
# [7] = Part 1, 3 mg KRP203+CsA, n=10, after 30 days of transplant
# [8] = Part 1, 3 mg KRP203+CsA, n=10, from transplant up to 30 days of transplant
# [9] = Part 1, 3 mg KRP203+CsA, n=10, start of treatment until just before transplant
# [10] = Part 1, after 30 days of transplantation
# [11] = Part 1, start of treatment until just before transplant
# [12] = Part 2, 1 mg KRP203+CsA arm, from transplant up to 30 days after transplant
# [13] = Part 2, after 30 days of transplantation
# [14] = Part 2, following 30 days after transplant
# Sequence of hERG channels (Q12809 whole entry): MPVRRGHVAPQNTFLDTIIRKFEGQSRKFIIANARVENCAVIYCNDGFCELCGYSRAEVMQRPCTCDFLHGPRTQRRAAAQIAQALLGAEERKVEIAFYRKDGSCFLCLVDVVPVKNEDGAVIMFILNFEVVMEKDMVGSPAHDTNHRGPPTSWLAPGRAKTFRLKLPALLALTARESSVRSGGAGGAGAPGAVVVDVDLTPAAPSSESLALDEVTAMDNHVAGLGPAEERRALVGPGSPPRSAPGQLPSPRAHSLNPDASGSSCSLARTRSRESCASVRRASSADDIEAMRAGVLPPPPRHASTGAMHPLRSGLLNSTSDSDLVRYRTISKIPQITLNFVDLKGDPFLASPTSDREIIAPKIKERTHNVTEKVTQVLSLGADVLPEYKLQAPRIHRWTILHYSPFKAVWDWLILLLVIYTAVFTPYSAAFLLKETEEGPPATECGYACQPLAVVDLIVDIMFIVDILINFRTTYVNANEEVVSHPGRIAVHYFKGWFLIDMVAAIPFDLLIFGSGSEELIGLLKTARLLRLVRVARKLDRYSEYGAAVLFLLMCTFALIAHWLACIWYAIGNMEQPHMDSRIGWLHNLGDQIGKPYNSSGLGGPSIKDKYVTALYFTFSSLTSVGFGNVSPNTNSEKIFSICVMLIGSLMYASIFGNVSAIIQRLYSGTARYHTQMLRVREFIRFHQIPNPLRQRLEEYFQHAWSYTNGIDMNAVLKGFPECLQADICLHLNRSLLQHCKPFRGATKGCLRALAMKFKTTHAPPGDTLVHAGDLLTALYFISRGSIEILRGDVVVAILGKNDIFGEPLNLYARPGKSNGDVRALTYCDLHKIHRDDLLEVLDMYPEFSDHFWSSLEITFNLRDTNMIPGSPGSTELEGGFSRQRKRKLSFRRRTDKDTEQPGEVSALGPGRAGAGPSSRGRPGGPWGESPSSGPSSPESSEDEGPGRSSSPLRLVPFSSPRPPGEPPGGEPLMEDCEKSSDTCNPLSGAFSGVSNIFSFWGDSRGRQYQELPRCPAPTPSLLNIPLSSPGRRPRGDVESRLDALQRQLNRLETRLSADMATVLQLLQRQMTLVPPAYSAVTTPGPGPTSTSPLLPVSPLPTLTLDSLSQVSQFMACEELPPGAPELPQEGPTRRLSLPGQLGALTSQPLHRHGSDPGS
smiles,measurement,setting,value
"NC(CO)(CO)CCc1ccc(Sc2cccc(OCc3ccccc3)c2)cc1Cl [KRP203, 2-amino-2-[4-(3-benzyloxyphenylthio)-2-chlorophenyl] ethyl-propane-1,3-diol]",inhibition of hERG channels,[1],slight inhibitory potential
same,subjects with AEs that resulted in discontinuation of study drug,[2]; 1 mg KRP203+CsA arm,33%
same,safety profile between dose groups,[2]; 1 mg/day plus CsA or 3 mg/day plus CsA or TAC,comparable between the 1 mg and 3 mg mocravimod dose groups
same,subjects with AEs that resulted in discontinuation of study drug,[2]; 3 mg KRP203+CsA arm,29%
same,subjects with AEs that resulted in discontinuation of study drug,[2]; 3 mg KRP203+Tac arm,14%
same,"subjects with AEs, SOC general disorders and administration site conditions",[2]; [7],60%
same,"subjects with AEs, SOC immune system disorders",[2]; [7],100%
same,"subjects with AEs, SOC infection and infestations",[2]; [7],50%
same,subjects with acute GvHD in intestine,[2]; [7],30%
same,subjects with acute GvHD in skin,[2]; [7],30%
same,subjects with chronic GvHD,[2]; [7],70%
same,subjects with chronic GvHD in intestine,[2]; [7],20%
same,subjects with chronic GvHD in liver,[2]; [7],50%
same,subjects with chronic GvHD in skin,[2]; [7],30%
same,subjects with diarrhea,[2]; [7],20%
same,subjects with edema peripheral,[2]; [7],40%
same,subjects with edema peripheral suspected related to study treatment,[2]; [7],20%
same,subjects with eyelid edema,[2]; [7],20%
same,subjects with nausea,[2]; [7],20%
same,subjects with rash,[2]; [7],20%
same,"subjects with AEs, SOC gastrointestinal disorder",[2]; [8],70%
same,"subjects with AEs, SOC immune system disorders",[2]; [8],30%
same,"subjects with AEs, SOC nervous system disorders",[2]; [8],30%
same,"subjects with AEs, SOC respiratory, thoracic and mediastinal disorders",[2]; [8],40%
same,"subjects with AEs, SOC vascular disorders",[2]; [8],30%
same,subjects with acute GvHD in intestine,[2]; [8],30%
same,subjects with capillary leak syndrome (suspected related to study treatment),[2]; [8],20%
same,subjects with nausea,[2]; [8],20%
same,subjects with pleural effusion (suspected related to study treatment),[2]; [8],20%
same,subjects with vomiting,[2]; [8],60%
same,"subjects with AEs, SOC gastrointestinal disorders",[2]; [9],60%
same,subjects with bradycardia,[2]; [9],20%
same,subjects with bradycardia suspected related to study treatment,[2]; [9],20%
same,subjects with hypertension suspected related to study treatment,[2]; [9],10%
same,subjects with nausea,[2]; [9],20%
same,subjects with sinus arrest suspected related to study treatment,[2]; [9],10%
same,subjects with vomiting,[2]; [9],40%
same,subjects reporting AEs,"[2]; Part 1, after 30 days of study treatment",all subjects
same,"subjects with serious AEs suspected related (cystoid macular edema, dyspnea exertional, edema peripheral)","[2]; Part 1, after 30 days of transplant, mild severities",10%
same,subjects with SAEs,[2]; [10],40%
same,"subjects with SAEs, general disorders and administration site conditions",[2]; [10],30%
same,"subjects with SAEs, infections and infestations",[2]; [10],20%
same,"subjects with SAEs, neoplasms benign, malignant and unspecified",[2]; [10],20%
same,"subjects with serious AEs (acute GvHD, dyspnea and weight increased)","[2]; Part 1, from transplant up to 30 days after the transplant",20%
same,subjects reporting AEs,[2]; [11],seven subjects
same,subjects with serious AE of vomiting,[2]; [11],10%
same,subjects reporting AEs,"[2]; Part 1, up to 30 days of transplant",nine subjects
same,subjects with serious AEs of blepharitis and cystoid macular edema,[2]; [12],10%
same,"subjects with serious AEs suspected related (blepharitis Grade 2, cystoid macular edema Grade 3)",[2]; [12],17%
same,subjects with at least one AE,"[2]; Part 2, both treatment arms (n=13), in each of the three periods",100%
same,subjects with serious AE acute GvHD in intestine,[2]; [13],23%
same,subjects with serious AE diarrhea,[2]; [13],15%
same,subjects with serious AE general physical health deterioration,[2]; [13],15%
same,"incidence each of febrile bone marrow aplasia, hepatic failure, Hodgkin's disease, macular ischemia and retinal ischemia (related SAEs)",[2]; [14],8%
same,subjects with serious AEs suspected related to study treatment,[2]; [14],31%
same,serious AEs,"[2]; Part 2, start of treatment until just before transplant",No serious AE
same,study discontinuation due to AEs,[2]; all 23 treated subjects,13%
same,study discontinuation due to death,[2]; all 23 treated subjects,9%
same,deaths reported,"[2]; overall, during the study, one-year and long-term follow-up period",seven
same,effect on cytochromes P450 enzymes and transporters,[3],lack of effect
same,potential in inhibiting the activity of human cytochrome P450 isoenzymes,[3]; in vitro tests,did not show relevant potential
same,Recovery of absolute lymphocyte counts to 80% of normal counts,[4],more than 10 days
same,no mortality following single oral dosing up to,[5],up to 2000 mg/kg
same,neuropharmacological effects,[6],no adverse neuropharmacological effects
